{
  "source": "patent US9302999B2",
  "about": "“Substituted triazoles as herbicides” (E. I. DU PONT DE NEMOURS AND COMPANY, priority 2012, dated 2016)",
  "assay_type_in_all_cases": "in vivo",
  "key": {"[1]": {"tested_on": "deadnettle (henbit deadnettle, Lamium amplexicaule)", "experiment": "Test D pre-/postemergence: deadnettle", "conditions": "Postemergence", "method_in_brief": "(§1)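 Species were sown in silt loam and sprayed preemergence, or grown in peat/vermiculite medium and sprayed postemergence at the 1- to 4-leaf stage (2–18 cm), with compounds in a surfactant-containing solvent. Injury was visually rated against untreated controls after 14–21 days, on a 0 (no effect) to 100 (complete control) scale.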"}, "[2]": {"tested_on": "barnyardgrass (Echinochloa crus-galli)", "experiment": "Test B flooded paddy: barnyardgrass", "conditions": "Flood; 250 g ai/ha; applied to paddy water at 2-leaf stage; visually evaluated after 13 to 15 days", "method_in_brief": "(§2)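 Plants were grown to the 2-leaf stage and pots flooded to 3 cm above soil. Compounds were applied directly into the paddy water, with depth kept for the test. After 13–15 days in greenhouse, response was rated visually against controls on a 0 (no effect) to 100 (complete control) scale.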"}, "[3]": {"tested_on": "field poppy (Papaver rhoeas)", "experiment": "Test D pre-/postemergence: field poppy", "conditions": "Postemergence", "method_in_brief": "as §1"}, "[4]": {"tested_on": "canarygrass (Phalaris minor)", "experiment": "Test D pre-/postemergence: canarygrass", "conditions": "Postemergence", "method_in_brief": "as §1"}, "[5]": {"tested_on": "mustard, wild (wild mustard, Sinapis arvensis)", "experiment": "Test D pre-/postemergence: mustard, wild", "conditions": "Postemergence", "method_in_brief": "as §1"}, "[6]": {"tested_on": "ducksalad (Heteranthera limosa)", "experiment": "Test B flooded paddy: ducksalad", "conditions": "Flood; 250 g ai/ha; applied to paddy water at 2-leaf stage; visually evaluated after 13 to 15 days", "method_in_brief": "as §2"}, "[7]": {"tested_on": "galium (catchweed bedstraw, Galium aparine)", "experiment": "Test D pre-/postemergence: galium", "conditions": "Postemergence", "method_in_brief": "as §1"}, "[8]": {"tested_on": "chickweed (common chickweed, Stellaria media)", "experiment": "Test D pre-/postemergence: chickweed", "conditions": "Postemergence", "method_in_brief": "as §1"}, "[9]": {"tested_on": "windgrass (Apera spica-venti)", "experiment": "Test C postemergence: windgrass", "method_in_brief": "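Crop and weed plants were grown in peat-vermiculite medium and treated postemergence at the 1- to 4-leaf stage (2-18 cm tall). After 13-15 days in a greenhouse, each species was rated visually against untreated controls on a 0-100 scale (0 no effect, 100 complete control).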"}, "[10]": {"conditions": "31 g ai/ha, scale 0 to 100 (0 no effect, 100 complete control)"}, "[11]": {"conditions": "62 g ai/ha, scale 0 to 100 (0 no effect, 100 complete control)"}, "[12]": {"conditions": "125 g ai/ha, scale 0 to 100, 0 no effect, 100 complete control"}, "[13]": {"conditions": "250 g ai/ha, scale 0 to 100 (0 no effect, 100 complete control)"}},
  "data": [
    {"smiles": "Cc1nn(-c2ccnc(C(F)(F)F)c2)nc1Cc1ccnc(C(F)(F)F)c1", "note": "[Compound 137]", "values": [
      {"measurement": "Plant response rating: Deadnettle", "setting": "[1]; [10]", "result": 40},
      {"measurement": "Plant response rating: Deadnettle", "setting": "[1]; [11]", "result": 70},
      {"measurement": "Plant response rating: Deadnettle", "setting": "[1]; [12]", "result": 80},
      {"measurement": "Plant response rating: Deadnettle", "setting": "[1]; [13]", "result": 85},
      {"measurement": "Plant response rating, Deadnettle", "setting": "[1]; 16 g ai/ha, scale 0 to 100", "result": 20},
      {"measurement": "Plant response rating, Barnyardgrass (0 to 100 scale, 0 is no effect, 100 is complete control)", "setting": "[2]", "result": 45},
      {"measurement": "Plant response rating: Field Poppy", "setting": "[3]; [10]", "result": 40},
      {"measurement": "Plant response rating: Field Poppy", "setting": "[3]; [11]", "result": 100},
      {"measurement": "Plant response rating: Field Poppy", "setting": "[3]; [12]", "result": 100},
      {"measurement": "Plant response rating: Field Poppy", "setting": "[3]; [13]", "result": 100},
      {"measurement": "Plant response rating, Field Poppy", "setting": "[3]; 16 g ai/ha, scale 0 to 100", "result": 30},
      {"measurement": "Plant response rating: Canarygrass", "setting": "[4]; [10]", "result": 20},
      {"measurement": "Plant response rating: Canarygrass", "setting": "[4]; [11]", "result": 30},
      {"measurement": "Plant response rating: Canarygrass", "setting": "[4]; [12]", "result": 50},
      {"measurement": "Plant response rating: Canarygrass", "setting": "[4]; [13]", "result": 75},
      {"measurement": "Plant response rating, Canarygrass", "setting": "[4]; 16 g ai/ha, scale 0 to 100", "result": 10},
      {"measurement": "Plant response rating: Mustard, Wild", "setting": "[5]; [10]", "result": 60},
      {"measurement": "Plant response rating: Mustard, Wild", "setting": "[5]; [11]", "result": 80},
      {"measurement": "Plant response rating: Mustard, Wild", "setting": "[5]; [12]", "result": 95},
      {"measurement": "Plant response rating: Mustard, Wild", "setting": "[5]; [13]", "result": 100},
      {"measurement": "Plant response rating, Mustard, Wild", "setting": "[5]; 16 g ai/ha, scale 0 to 100", "result": 50},
      {"measurement": "Plant response rating, Ducksalad (0 to 100 scale, 0 is no effect, 100 is complete control)", "setting": "[6]", "result": 50},
      {"measurement": "Plant response rating: Galium", "setting": "[7]; [10]", "result": 20},
      {"measurement": "Plant response rating: Galium", "setting": "[7]; [11]", "result": 40},
      {"measurement": "Plant response rating: Galium", "setting": "[7]; [12]", "result": 75},
      {"measurement": "Plant response rating: Galium", "setting": "[7]; [13]", "result": 75},
      {"measurement": "Plant response rating, Galium", "setting": "[7]; 16 g ai/ha, scale 0 to 100", "result": 20},
      {"measurement": "Plant response rating: Chickweed", "setting": "[8]; [10]", "result": 50},
      {"measurement": "Plant response rating: Chickweed", "setting": "[8]; [11]", "result": 80},
      {"measurement": "Plant response rating: Chickweed", "setting": "[8]; [12]", "result": 85},
      {"measurement": "Plant response rating: Chickweed", "setting": "[8]; [13]", "result": 90},
      {"measurement": "Plant response rating, Chickweed", "setting": "[8]; 16 g ai/ha, scale 0 to 100", "result": 40},
      {"measurement": "Plant response rating, Windgrass", "setting": "[9]; [10]", "result": 40},
      {"measurement": "Plant response rating, Windgrass", "setting": "[9]; [11]", "result": 50},
      {"measurement": "Plant response rating, Windgrass", "setting": "[9]; [12]", "result": 70},
      {"measurement": "Plant response rating, Windgrass", "setting": "[9]; 250 g ai/ha, scale 0 to 100", "result": 90}
    ]}
  ]
}
